Laboratory results published in US20240228493A1, “LRRK2 INHIBITORS AND USES THEREOF” (NEURON23, ICN., priority 2022, published 2024).

Key:
[1] = target: T1, wt human LRRK2, catalytic site (Homo sapiens, UniProt Q5S007); test: TR-FRET LanthaScreen Tb Kinase Activity Assay, LRRK2 inhibition; assay type: biochemical; conditions: 2 nM wt human LRRK2, 400 nM peptide, 38 μM ATP
T1 construct: wt human LRRK2, catalytic site, catalytic site (ThermoFisher/USA); purchased ThermoFisher
Procedure: The compounds disclosed herein were tested for their inhibitory effect on LRRK2 kinase according to the following procedures.
The protocol for basic TR-FRET LanthaScreen Tb Kinase Activity Assay inhibitor studies were as follows. LanthaScreen Kinase Activity Assays (ThermoFisher/USA) to evaluate inhibitors were performed by addition of 100 nL of test compound in corresponding DMSO dilutions/5 μL of kinase/fluorescein-ERM (LRRKtide) peptide mixture, Compound & kinase were pre-incubated for 15 minutes, then 5 μl of ATP into 384 well small volume plates. After incubation for 120 minutes at room temperature, the detection reagents containing Tb-anti-pLRRKtide antibody were added to monitor phosphorylation level of peptide. Then, after 60 min minutes incubation at room temperature plates were read in Envision. Data analysis of emission ratios was according to LanthaScreen Tb Kinase Activity Assay protocol.
Kinase and assay components were adjusted to final concentrations according to the kit protocol. For LRRK2: 2 nM wt human LRRK2, catalytic site, catalytic site (ThermoFisher/USA), 400 nM peptide, 38 μM ATP in 1× Kinase Buffer A. […]
Kinase and assay components were adjusted to final concentrations according to the kit protocol.

Caco-2 cells = test: Caco-2 bidirectional permeability; assay type: in vitro ADME; conditions: for Caco-2 ER: Efflux Ratio=Papp(BA)/Papp(AB); for Caco-2 A2B (10^−6 cm/s): apical to basolateral; for Caco-2 A2B (10^−6 cm/s) / Caco-2 B2A (10^−6 cm/s): 2 hours, pH 7.4; for Caco-2 B2A (10^−6 cm/s): basolateral to apical
Procedure: The compounds disclosed herein were tested in vitro on CaCo2 cell penetration according to the following procedures.
Caco-2 cells purchased from ATCC were seeded onto […] (PET) in 96-well Corning Insert plates at 1×10^5 cells/cm^2. The media were refreshed every 4 to 5 days until the 21st to 28th day for confluent cell monolayer formation.
Experiments were run in duplicate using a HBSS transport buffer containing 10 mM HEPES at pH 7.4. The test article TEST COMPOUND was tested bi-directionally at […] concentrations, the control compound digoxin was tested bi-directionally at 10 μM, and nadolol and metoprolol were tested at 2.0 μM in the A to B direction. Final DMSO concentrations were adjusted to less than 1%. The plates were incubated for 2 hours in a CO2 incubator at 37±1° C. with 5% CO2 at saturated humidity without shaking. Following incubation, samples were mixed with acetonitrile containing internal standard and centrifuged at 3200×g for 10 minutes. Then 200 μL of supernatant was taken from all samples. For TEST COMPOUND and digoxin, the supernatant was diluted with 200 μL of ultra-pure water and for nadolol and metoprolol, the supernatant was diluted with 600 μL of ultra-pure water. All samples were analyzed by LC-MS/MS. Concentrations of TEST COMPOUND and control compounds were determined in starting solutions, donor well solutions, and receiver well solutions using peak area ratios (PAR) of analyte to internal standard. After the transport assay, a lucifer yellow rejection assay was run to determine the Caco-2 cell monolayer integrity.
The apparent permeability (Papp), the % recovery and the efflux ratio were calculated as follows:
Papp=(dCr/dt)×Vr/(A×C0) 1.
Efflux Ratio=Papp(BA)/Papp(AB) 3. • Where: • dCr/dt is the slope of the cumulative concentration in the receiver compartment versus time (mM/s). • Vr and Vd is the volume in the receiver and donor compartments (0.075 mL on the apical side, 0.25 mL on the basolateral side), respectively. • A is the surface area of the cell monolayer (0.0804 cm^2). • C0 is the measured donor concentrations (μM) at the beginning of the experiment. • Cd and Cr are the final measured concentrations in the donor and receiver compartments, respectively.

human hepatocyte = test: Human hepatocyte stability, predicted hepatic clearance (h-Hept CL predict); assay type: in vitro ADME; conditions: human hepatocytes, 0.5×10^6 cells/mL, 1 μM, values without asterisk
Procedure: The compounds disclosed herein were tested in vitro on human hepatocyte for in vitro h-Hept CL predict according to the following procedures. • 1. Compound sock solutions were prepared by dissolving test compound and positive control in dimethyl sulfoxide (DMSO) at a concentration of 10 mM. Stock solutions were then diluted to 100 μM solutions by combining 198 μL of 50% acetonitrile/50% water with 2 μL of the 10 mM stock in separate conical tubes. • 2. Cryopreserved hepatocytes were prepared as follows: Incubation medium (William's E Medium supplemented with GlutaMAX) and hepatocyte thawing medium were placed in a 37° C. water bath and allowed to warm for at least 15 minutes prior to use. Cryopreserved hepatocytes were removed from storage, ensuring that vials remained at cryogenic temperatures until thawed. Cells were thawed by placing the vials in a 37° C. water bath and gently shaking the vials for 2 minutes. After thawing was completed, vials were sprayed with 70% ethanol and transferred to a biosafety cabinet. Hepatocytes were transferred into 50 mL conical tube containing thawing medium using wide-bore pipette tips. Tubes were placed into a centrifuge and spun at 100 g for 10 minutes. Then thawing medium was aspirated and hepatocytes were resuspended in enough incubation medium to yield ˜1.5×10^6 cells/mL. Cells were counted using acridine orange and propidium iodide (AO/PI) staining, and the viable cell density was determined. Cells were diluted with incubation medium to a working cell density of 0.5×10^6 viable cells/mL. • 3. To determine hepatocyte stability, 198 μL of hepatocytes were transferred into each well of a 96-well non-coated plate. Plates were placed in an incubator to allow the hepatocytes to warm for 10 minutes. • 4. The reaction was started by transferring 2 μL of the 100 μM test compound or positive control solution into respective wells of the 96-well non-coated plates. Plates were returned to the incubator until 25 μL aliquots of well contents were sampled at time points of 0, 15, 30, 60, 90 and 120 minutes. The aliquots were then mixed with 6 volumes (150 μL) of acetonitrile containing internal standard, IS (100 nM alprazolam, 200 nM caffeine and 100 nM tolbutamide) to terminate the reaction and vortexed for 5 minutes. After centrifuging the samples for 45 minutes at 3,220 g, aliquots of 100 μL of the supernatant were taken and diluted with 100 μL of ultra-pure water. The mixture was used for LC/MS/MS analysis. All incubations were performed in duplicate.
All calculations were carried out using Microsoft Excel. Peak area ratios (PAR) were determined from extracted ion chromatograms. The in vitro half-life (t1/2) of parent compound was determined by regression analysis of the percent parent disappearance vs. time curve as follows:
Conversion of the in vitro t1/2 (in minutes) into the in vitro intrinsic clearance (in vitro CLint, in μL/min/1×10^6 cells) was done using the following equation (mean of duplicate determinations): […]
The scaled-up intrinsic clearance (CLint, mL/min/kg), predicted hepatic clearance (CLH, mL/min/kg) and hepatic extraction ratio (ER) were calculated using the following equations:
CLint=(0.693/t1/2)*(1/(hepatocyte concentration (0.5*10^6 cells/mL)))*scaling factors (Table (A) Appendix Table 1)
CLHept-predict=(QH*Scaled-up CLint*fub)/(QH+Scaled-up CLint*fub)
ER=CLH/QH • Where: • V=incubation volume (0.2 mL) • N=number of hepatocytes per well (0.1*10^6 cells) • QH=hepatic blood flow (mL/min/kg) (Table (A) Appendix Table 1) • fub=fraction of unbound drug in plasma, assumed to be 1

T1 sequence (Q5S007 1879-2138 limits assumed): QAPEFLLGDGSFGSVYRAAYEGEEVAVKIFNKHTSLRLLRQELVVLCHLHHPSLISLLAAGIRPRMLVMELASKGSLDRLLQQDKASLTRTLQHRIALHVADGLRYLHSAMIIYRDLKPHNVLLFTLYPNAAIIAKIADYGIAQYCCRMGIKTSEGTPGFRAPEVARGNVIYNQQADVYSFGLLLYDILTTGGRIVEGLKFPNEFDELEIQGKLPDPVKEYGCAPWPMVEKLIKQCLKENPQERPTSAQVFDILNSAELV

| SMILES | IC50 [1] [nM] | Caco-2 ER (Caco-2 cells) | Caco-2 A2B (10^−6 cm/s) (Caco-2 cells) | Caco-2 B2A (10^−6 cm/s) (Caco-2 cells) | hHep Cl (mL/min/kg) (human hepatocyte) |
| --- | --- | --- | --- | --- | --- |
| Cc1n[nH]c2c1N=C(c1c(F)cccc1F)Nc1cnc(N3CCO[C@@]4(CCOC4)C3)cc1-2 (single isomer, unassigned) [Example 3] | < 1 | L (L (Likely)”: ER≥2.5) | M (M (Moderate permeability)”: 1≤A2B (B2A)≤5) | H (H (High permeability)”: A2B (B2A)>5) | L (L (Low Cl)”: Hep Cl (mL/min/kg)<6.3) |
| Cc1n[nH]c2c1N=C(c1c(F)cccc1F)Nc1cnc(N3CCO[C@]4(CCOC4)C3)cc1-2 (single isomer, unassigned) [Example 4] | < 1 | L (L (Likely)”: ER≥2.5) | M (M (Moderate permeability)”: 1≤A2B (B2A)≤5) | H (H (High permeability)”: A2B (B2A)>5) | L (L (Low Cl)”: Hep Cl (mL/min/kg)<6.3) |
| Cc1n[nH]c2c1N=C(c1c(F)cccc1F)Nc1cnc(N3CCC[C@](C)(C#N)C3)cc1-2 (single isomer, unassigned) [Example 13] | < 1 | L (L (Likely)”: ER≥2.5) | M (M (Moderate permeability)”: 1≤A2B (B2A)≤5) | H (H (High permeability)”: A2B (B2A)>5) | I (I (Intermediate Cl)”: 6.3≤Hep Cl (mL/min/kg)≤14.7) |
| Cc1n[nH]c2c1N=C(c1c(F)cccc1F)Nc1cnc(N3CCN(CCF)CC3)cc1-2 [Example 1, 8-(2,6-difluorophenyl)-13-[4-(2-fluoroethyl)piperazin-1-y1]-5-methyl-3,4,7,9,12-pentazatricyclo[8.4.0.02,6]tetradeca-1(10),2(6),4,7,11,13-hexaene] | < 1 | L (L (Likely)”: ER≥2.5) | M (M (Moderate permeability)”: 1≤A2B (B2A)≤5) | H (H (High permeability)”: A2B (B2A)>5) | I (I (Intermediate Cl)”: 6.3≤Hep Cl (mL/min/kg)≤14.7) |
| Cc1n[nH]c2c1N=C(c1c(F)cccc1F)Nc1cnc(N3CCOC4(COC4)C3)cc1-2 [Example 5, 8-[8-(2,6-difluorophenyl)-5-methyl-3,4,7,9,12-pentazatricyclo[8.4.0.02,6]tetradeca-1(10),2(6),4,7,11,13-hexaen-13-y1]-2,5-dioxa-8-azaspiro[3.5]nonane] | < 1 | L (L (Likely)”: ER≥2.5) | L (L (Low permeability)”: A2B (B2A)<1) | H (H (High permeability)”: A2B (B2A)>5) | L (L (Low Cl)”: Hep Cl (mL/min/kg)<6.3) |
| Cc1n[nH]c2c1N=C(c1c(F)cccc1F)Nc1cnc(N3CCNC4(COC4)C3)cc1-2 [Example 7, 8-[8-(2,6-difluorophenyl)-5-methyl-3,4,7,9,12-pentazatricyclo[8.4.0.02,6]tetradeca-1(10),2(6),4,7,11,13-hexaen-13-y1]-2-oxa-5,8-diazaspiro[3.5]nonane] | < 1 | L (L (Likely)”: ER≥2.5) | L (L (Low permeability)”: A2B (B2A)<1) | H (H (High permeability)”: A2B (B2A)>5) | L (L (Low Cl)”: Hep Cl (mL/min/kg)<6.3) |
| Cc1n[nH]c2c1N=C(c1c(F)cccc1F)Nc1cnc(N3CCN(C)CC3)cc1-2 [Example 8, 8-(2,6-difluorophenyl)-5-methyl-13-(4-methylpiperazin-1-y1)-3,4,7,9,12-pentazatricyclo[8.4.0.02,6]tetradeca-1(10),2(6),4,7,11,13-hexaene] | < 1 | L (L (Likely)”: ER≥2.5) | M (M (Moderate permeability)”: 1≤A2B (B2A)≤5) | H (H (High permeability)”: A2B (B2A)>5) | L (L (Low Cl)”: Hep Cl (mL/min/kg)<6.3) |
| Cc1n[nH]c2c1N=C(c1c(F)cccc1F)Nc1cnc(N3CCCOCC3)cc1-2 [Example 9, 4-[8-(2,6-difluorophenyl)-5-methyl-3,4,7,9,12-pentazatricyclo[8.4.0.02,6]tetradeca-1(10),2(6),4,7,11,13-hexaen-13-y1]-1,4-oxazepane] | 1 to 100 | L (L (Likely)”: ER≥2.5) | M (M (Moderate permeability)”: 1≤A2B (B2A)≤5) | H (H (High permeability)”: A2B (B2A)>5) | L (L (Low Cl)”: Hep Cl (mL/min/kg)<6.3) |
| Cc1n[nH]c2c1N=C(c1c(F)cccc1F)Nc1cnc(N3CCNCC3)cc1-2 [Example 10, 8-(2,6-difluorophenyl)-5-methyl-13-piperazin-1-yl-3,4,7,9,12-pentazatricyclo[8.4.0.02,6]tetradeca-1(10),2(6),4,7,11,13-hexaene] | 1 to 100 | L (L (Likely)”: ER≥2.5) | L (L (Low permeability)”: A2B (B2A)<1) | H (H (High permeability)”: A2B (B2A)>5) | L (L (Low Cl)”: Hep Cl (mL/min/kg)<6.3) |
